The values that follow come from patent publication US9828374B2, “Substituted pyrazino[2,2-a]isoquinoline derivatives” (Hoffmann-La Roche Inc., priority 2014, dated 2017).

Molecules are shown by their SMILES.

For one test, the target named is mouse TAAR1 (Mus musculus (Mouse), UniProt Q923Y8). The test is described as follows: Radioligand binding assay on mouse TAAR1. Particulars: mouse TAAR1, HEK-293 membranes; first value of the mouse/rat pair. Here is the method:
(§1) Construction of TAAR Expression Plasmids and Stably Transfected Cell Lines
(§2) For the construction of expression plasmids the coding sequences of human, rat and mouse TAAR 1 were amplified from genomic DNA essentially as described by Lindemann et al..
(§3) The Expand High Fidelity PCR System (Roche Diagnostics) was used with 1.5 mM Mg^2+ and purified PCR products were cloned into pCR2.1-TOPO cloning vector (Invitrogen) following the instructions of the manufacturer. PCR products were subcloned into the pIRESneo2 vector (BD Clontech, Palo Alto, Calif.), and expression vectors were sequence verified before introduction in cell lines.
(§4) HEK293 cells (ATCC # CRL-1573) were cultured essentially as described by Lindemann et al. (2005). For the generation of stably transfected cell lines HEK293 cells were transfected with the pIRESneo2 expression plasmids containing the TAAR coding sequences (described above) with Lipofectamine 2000 (Invitrogen) according to the instructions of the manufacturer, and 24 hrs post transfection the culture medium was supplemented with 1 mg/ml G418 (Sigma, Buchs, Switzerland). After a culture period of about 10 d clones were isolated, expanded and tested for responsiveness to trace amines (all compounds purchased from Sigma) with the cAMP Biotrak Enzyme immunoassay (EIA) System (Amersham) following the non-acetylation EIA procedure provided by the manufacturer.
Radioligand Binding Assay on Mouse TAAR1
(§5) Membrane Preparation and Radioligand Binding.
(§6) HEK-293 cells stably expressing mouse TAAR1 were maintained at 37° C. and 5% CO2 in DMEM high glucose medium, containing fetal calf serum (10%, heat inactivated for 30 min at 56° C.), penicillin/streptomycin (1%), and 375 μg/ml geneticin (Gibco). Cells were released from culture flasks using trypsin/EDTA, harvested, washed twice with ice-cold PBS (without Ca^2+ and Mg^2+), pelleted at 1,000 rpm for 5 min at 4° C., frozen and stored at −80° C. Frozen pellets were suspended in 20 ml HEPES-NaOH (20 mM, pH 7.4) containing 10 mM EDTA and homogenized with a Polytron (PT 6000, Kinematica) at 14,000 rpm for 20 s. The homogenate was centrifuged at 48,000×g for 30 min at 4° C. Subsequently, the supernatant was removed and discarded, and the pellet resuspended in 20 ml HEPES-NaOH (20 mM, pH 7.4) containing 0.1 mM EDTA using the Polytron (20 s at 14,000 rpm). This procedure was repeated and the final pellet resuspended in HEPES-NaOH containing 0.1 mM EDTA and homogenized using the Polytron. Typically, aliquots of 2 ml membrane portions were stored at −80° C. With each new membrane batch the dissociation constant (Kd) was determined via a saturation curve. […] Nonspecific binding was defined as the amount of ^3[H]-(S)-4-[(ethyl-phenyl-amino)-methyl]-4,5-dihydro-oxazol-2-ylamine bound in the presence of 10 μM unlabeled ligand. All compounds were tested at a broad range of concentrations (10 pM to 10 μM) in duplicates. […] The 96 deep well plates were incubated for 1 hr at 4° C. Incubations were terminated by rapid filtration through Unifilter-96 plates (Packard Instrument Company) and glass filters GF/C (Perkin Elmer) presoaked for 1 hr in polyethylenimine (0.3%) and washed 3 times with 1 ml of cold binding buffer. After addition of 45 μl of Microscint 40 (PerkinElmer) the Unifilter-96 plate was sealed and after 1 hr the radioactivity counted using a TopCount Microplate Scintillation Counter (Packard Instrument Company).

The target of another test is rat TAAR1 (Rattus norvegicus (Rat), UniProt Q923Y9). The test is described as follows: Radioligand binding assay on rat TAAR1. Particulars: rat TAAR1, HEK-293 membranes; second value of the mouse/rat pair. Here is the method:
as §1, §2, §3, §4
Radioligand Binding Assay on Rat TAAR1
as §5
as §6, with “rat” for “mouse”, “[H]-(S)-4-[(ethyl-phenyl-amino)-methyl]-4,5-dihydro-oxazol-2-ylamine” for “^3[H]-(S)-4-[(ethyl-phenyl-amino)-methyl]-4,5-dihydro-oxazol-2-ylamine”, “[…]” for “pM”

Chain of mouse TAAR1 (Q923Y8 whole entry): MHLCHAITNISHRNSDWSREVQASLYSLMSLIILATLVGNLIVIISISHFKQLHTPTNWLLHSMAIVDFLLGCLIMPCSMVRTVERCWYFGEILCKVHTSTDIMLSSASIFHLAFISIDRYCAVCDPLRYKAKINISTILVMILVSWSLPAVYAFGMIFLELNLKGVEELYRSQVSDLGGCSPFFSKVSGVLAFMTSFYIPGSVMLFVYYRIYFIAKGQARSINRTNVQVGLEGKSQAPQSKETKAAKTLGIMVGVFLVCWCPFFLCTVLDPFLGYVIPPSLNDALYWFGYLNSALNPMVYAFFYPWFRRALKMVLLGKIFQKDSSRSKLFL
Chain of rat TAAR1 (Q923Y9 whole entry): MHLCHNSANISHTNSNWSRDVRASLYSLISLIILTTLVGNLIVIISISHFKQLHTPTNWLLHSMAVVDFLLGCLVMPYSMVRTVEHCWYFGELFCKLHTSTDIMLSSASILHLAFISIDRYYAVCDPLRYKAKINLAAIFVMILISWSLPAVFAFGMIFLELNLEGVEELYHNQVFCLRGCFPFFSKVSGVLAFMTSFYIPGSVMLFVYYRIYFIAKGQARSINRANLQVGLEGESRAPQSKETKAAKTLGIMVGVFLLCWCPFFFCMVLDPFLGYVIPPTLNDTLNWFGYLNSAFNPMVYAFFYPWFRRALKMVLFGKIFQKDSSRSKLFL

Broadly, the Ki is the dissociation constant of the complex between target and ligand, obtained from inhibition or displacement. A low value points to tighter binding. Take `O=C(Nc1ccc(C(F)(F)F)cc1)Nc1ccc2c(c1)CCN1CCNC[C@@H]21` [Example 35, (R)-1-(2,3,4,6,7,11b-hexahydro-1H-pyrazino[2,1-a]isoquinolin-9-yl)-3-(4-(trifluoromethyl)phenyl)urea]: the Ki was 0.0025 µM at mouse TAAR1 and 0.0012 µM at rat TAAR1.
Taken in the same sequence, the figures for `CCc1n[nH]c(C(=O)Nc2ccc3c(c2)CCN2CCNC[C@@H]32)c1C` [Example 41, (R)-3-ethyl-N-(2,3,4,6,7,11b-hexahydro-1H-pyrazino[2,1-a]isoquinolin-9-yl)-4-methyl-1H-pyrazole-5-carboxamide] were 0.145 µM and 0.288 µM.
In the same order, the values of `Cc1cc(Nc2ccc3c(c2)CCN2CCNC[C@@H]32)nc(C(F)(F)F)n1` [Example 20, (11bR)-N-[6-methyl-2-(trifluoromethyl)pyrimidin-4-yl]-2,3,4,6,7,11b-hexahydro-1H-pyrazino[2,1-a]isoquinolin-9-amine] are 0.0364 µM and 0.0112 µM.
As to `FC(F)(F)c1ccnc(Nc2ccc3c(c2)CCN2CCNC[C@@H]32)n1` [Example 24, (11bR)-N-[4-(trifluoromethyl)pyrimidin-2-yl]-2,3,4,6,7,11b-hexahydro-1H-pyrazino[2,1-a]isoquinolin-9-amine], the Ki stood at 0.0599 µM on mouse TAAR1 and 0.0471 µM at rat TAAR1.
On to `Cc1cc(Nc2ccc3c(c2)CCN2CCNC[C@@H]32)nc(C)n1` [Example 23, (11bR)-N-(2,6-dimethylpyrimidin-4-yl)-2,3,4,6,7,11b-hexahydro-1H-pyrazino[2,1-a]isoquinolin-9-amine], for which the Ki on mouse TAAR1 is 0.165 µM; on rat TAAR1, 0.457 µM.
In the same order, the values of `FC(F)(F)c1cnc(Nc2ccc3c(c2)CCN2CCNC[C@@H]32)cn1` [Example 7, (11bR)-N-[5-(trifluoromethyl)pyrazin-2-yl]-2,3,4,6,7,11b-hexahydro-1H-pyrazino[2,1-a]isoquinolin-9-amine] are 0.0329 µM and 0.0356 µM.
In the same order, the values of `O=C(Nc1cnc(Cl)nc1)c1ccc2c(c1)CCN1CCNC[C@@H]21` [Example 46, (11bR)-N-(2-chloropyrimidin-5-yl)-2,3,4,6,7,11b-hexahydro-1H-pyrazino[2,1-a]isoquinoline-9-carboxamide] are 0.309 µM and more than 1.5 µM.
`O=C(Nc1ccc(Cl)cc1)c1ccc2c(c1)CCN1CCNC[C@@H]21` [Example 44, (11bR)-N-(4-chlorophenyl)-2,3,4,6,7,11b-hexahydro-1H-pyrazino[2,1-a]isoquinoline-9-carboxamide]: the Ki amounted to 0.0161 µM on mouse TAAR1 and 0.274 µM on rat TAAR1.
Consider `Nc1ccc2c(c1)CCN1CCNC[C@@H]21` [Example 47, (11bR)-2,3,4,6,7,11b-hexahydro-1H-pyrazino[2,1-a]isoquinolin-9-amine], for which the Ki is 1.1 µM on mouse TAAR1 and more than 1.5 µM at rat TAAR1.
In the same order, the values of `c1cc2c(cc1Nc1nc(C3CC3)no1)CCN1CCNC[C@@H]21` [Example 37, N-[(11R)-2,3,4,6,7,11-hexahydro-1H-pyrazino[2,1-a]isoquinolin-9-yl]-3-cyclopropyl-1,2,4-oxadiazol-5-amine] are 0.0347 µM and 0.198 µM.
In the same order, the values of `c1cc2c(cc1C1CC1)CCN1CCNC[C@@H]21` [Example 29, (11bR)-9-cyclopropyl-2,3,4,6,7,11b-hexahydro-1H-pyrazino[2,1-a]isoquinoline] are 1.81 µM and 0.815 µM.
Taken in the same sequence, the figures for `Fc1cc2c(cc1Nc1ncc(C(F)(F)F)cn1)CCN1CCNC[C@@H]21` [Example 17, (11bR)-10-fluoro-N-[5-(trifluoromethyl)pyrimidin-2-yl]-2,3,4,6,7,11b-hexahydro-1H-pyrazino[2,1-a]isoquinolin-9-amine] were 0.261 µM and 0.623 µM.
For `O=C(Nc1ccc2c(c1F)CCN1CCNC[C@@H]21)c1ccnc(C(F)(F)F)c1` [Example 32, N-[(11bR)-8-fluoro-2,3,4,6,7,11b-hexahydro-1H-pyrazino[2,1-a]isoquinolin-9-yl]-2-(trifluoromethyl)pyridine-4-carboxamide], the Ki at mouse TAAR1 worked out at 0.444 µM; at rat TAAR1, 7.63 µM.
Taken in the same sequence, the figures for `COc1ccc(NC(=O)c2ccc3c(c2)CCN2CCNC[C@@H]32)cn1` [Example 45, (11bR)-N-(6-methoxy-3-pyridyl)-2,3,4,6,7,11b-hexahydro-1H-pyrazino[2,1-a]isoquinoline-9-carboxamide] were 0.299 µM and more than 1.5 µM.
As for `FC(F)(F)c1nccc(Nc2ccc3c(c2)CCN2CCNC[C@H]32)n1` [Example 11, (11bS)-N-[2-(trifluoromethyl)pyrimidin-4-yl]-2,3,4,6,7,11b-hexahydro-1H-pyrazino[2,1-a]isoquinolin-9-amine], the Ki at mouse TAAR1 came out at 1.18 µM; on rat TAAR1 it was 0.904 µM.
As for `Fc1c(Nc2ncc(C3CC3)cn2)ccc2c1CCN1CCNC[C@@H]21` [Example 33, (11bR)-N-(5-cyclopropylpyrimidin-2-yl)-8-fluoro-2,3,4,6,7,11b-hexahydro-1H-pyrazino[2,1-a]isoquinolin-9-amine], the Ki is 0.0677 µM at mouse TAAR1 and 0.105 µM on rat TAAR1.
In the same order, the values of `FC(F)(F)c1cnc(Nc2ccc3c(c2)CCN2CCNC[C@@H]32)nc1` [Example 6, (11bR)-N-[5-(trifluoromethyl)pyrimidin-2-yl]-2,3,4,6,7,11b-hexahydro-1H-pyrazino[2,1-a]isoquinolin-9-amine] are 0.0374 µM and 0.0195 µM.
In the same order, the values of `COc1ccc(NC(=O)Nc2ccc3c(c2)CCN2CCNC[C@@H]32)cc1` [Example 36, (R)-1-(2,3,4,6,7,11b-hexahydro-1H-pyrazino[2,1-a]isoquinolin-9-yl)-3-(4-methoxyphenyl)urea] are 0.0101 µM and 0.023 µM.
In the same order, the values of `O=C(Nc1ccc2c(c1)CCN1CCNC[C@H]21)c1ccc(Cl)cc1` [Example 8, N-[(11bS)-2,3,4,6,7,11b-hexahydro-1H-pyrazino[2,1-a]isoquinolin-9-yl]-4-chloro-benzamide] are 0.0075 µM and 0.0063 µM.
As for `Fc1cccc2c1CCN1CCNC[C@@H]21` [Example 30, (11bR)-8-fluoro-2,3,4,6,7,11b-hexahydro-1H-pyrazino[2,1-a]isoquinoline], the Ki at mouse TAAR1 stood at 0.176 µM; at rat TAAR1 it was 0.201 µM.
